These results are taken from patent publication EP0607274B1, “3-(N-ISOPROPYL-N-n-PROPYLAMINO)-5-(N-ISOPROPYL)CARBAMOYLCHROMAN” (priority 1991, dated 1993).

For orientation: Ki means the dissociation constant of the complex between target and ligand, obtained from inhibition or displacement. For orientation: bioavailability means dose-corrected exposure relative to a reference, in per cent. A higher bioavailability goes with much systemic uptake.

The target in one data set is T1, 5-HT1A receptors (Rattus norvegicus, UniProt P19327).
T1 construct: Cerebral cortex + hippocampus from each rat was dissected and homogenized; from tissue; host or cells: rat cerebral cortex + hippocampus homogenate
T1 sequence (P19327 1-422): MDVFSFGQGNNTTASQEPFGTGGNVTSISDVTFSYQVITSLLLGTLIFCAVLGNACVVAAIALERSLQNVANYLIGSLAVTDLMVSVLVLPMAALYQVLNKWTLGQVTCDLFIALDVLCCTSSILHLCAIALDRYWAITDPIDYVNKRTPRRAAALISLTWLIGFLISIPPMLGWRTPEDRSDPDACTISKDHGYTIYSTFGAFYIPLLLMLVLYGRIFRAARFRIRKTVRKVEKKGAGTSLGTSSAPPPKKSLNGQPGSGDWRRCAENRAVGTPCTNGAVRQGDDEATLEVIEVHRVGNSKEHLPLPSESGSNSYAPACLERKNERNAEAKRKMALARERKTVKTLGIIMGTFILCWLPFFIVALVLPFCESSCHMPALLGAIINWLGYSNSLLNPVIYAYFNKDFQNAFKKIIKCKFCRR
The experiment in a line: 5HT1A binding assay (3H-8-OH-DPAT, rat cerebral cortex + hippocampus homogenate). Conditions: rat brain, 37°C, 10 minutes. Here is the method: In order to evaluate the 5-HT-receptor stimulating effect and selectivity, the affinity for various receptors in rat brain were measured in vitro using receptor assay. The stereospecific (R)-enantiomeric compound of the invention (R)-3-(N-isopropyl-N-n-propylamino)-5-(N-isopropyl)carbamoylchroman has Ki 8.6 (nM) and the racemic compound 3-(N-isopropyl-N-n-propylamino)-5-(N-isopropyl)-carbamoylchroman has Ki 24 (nM). The Ki value for the (S)-enantiomer exceeded 1000 nM.
Method: 5HT1A binding assay. Cerebral cortex + hippocampus from each rat was dissected and homogenized in 15 ml ice-cold 50 mM Tris-HCl buffer 4.0 mM CaCl2 and 5.7 mM ascorbic acid, pH 7.5 with an Ultra-Turrax (Janke & Kunkel, Staufen, FRG) for ten s. After centrifugation for 12.5 min at 17,000 rpm (39,800 x g in a Beckman centrifuge with a chilled JA-17 rotor (Beckman, Palo Alto, CA, USA), the pellets were resuspended in the same buffer and homogenization and centrifugation repeated. To each pellet 5 ml ice-cold 0.32 M sucrose were added and homogenized for 5 sec. These samples were kept frozen at -70°C. When used they were diluted with the buffer to 8 mg tissue/ml and homogenized for 10 sec. The tissue homogenates were incubated for ten minutes at 37°C and then supplied with 10 µM pargyline followed by reincubation for 10 minutes.
The binding assay followed that described by Peroutka, J. Neurochem. 47, 529-540, (1986). The incubation mixture (2 ml) contained ^3H-8-OH-DPAT (0.25 to 8 nM), 5 mg/ml tissue homogenate in 50 mM Tris-HCl buffer containing 4.0 mM CaCl2 and 5.7 mM ascorbic acid, pH 7.5. Six different concentrations of ^3H-8-OH-DPAT were analyzed. Binding experiments were started by the addition of tissue homogenate and followed by incubation at 37°C for 10 minutes. […] The filters were washed twice with 5 ml ice-cold 50mM Tris-HCl buffer, pH 7.5, and counted with 5 ml Ready-solv HP (Beckman) in a Beckman LS 3801 scintillation counter. Non-specific binding was measured by the addition of 10 µM 5-HT to the reaction mixture. […]

A short description of data set [1]: Oral bioavailability in dogs (plasma AUC method, i.v. versus p.o.). The conditions noted are these: dog, 10 umol/kg, plasma level measurements, 1 µmol·kg^-1 i.v. and 10 µmol·kg^-1 p.o. Format: in vivo. Here is the method:
Dose-effect studies in rat following subcutaneous versus oral administration further support a high availability of the compound at the receptor after oral administration.
Method: Assessment for oral bioavailability (systemic availability) was based on the plasma area under the curve (AUC) method. An aqueous saline solution of compound of the invention was administered intravenously (i.v.) and orally (p.o.) to the animals and concentrations of the compound in plasma measured at numerous timepoints. The doses administered were 1 µmol·kg^-1 and 10 µmol·kg^-1 for intravenous and oral administration, respectively. AUC was calculated according to the trapezoidal rule. Determination of the test compound in plasma was accomplished by an HPLC method which incorporated electrochemical detection.

The subject of the next data set is synthesis rate of 5-HT. Nature of the data set: Synthesis of 5-HT: accumulation of 5-HTP in rat brain after NSD 1015. Conditions: compound given 30 min before NSD 1015. Type of data set: in vivo. Here is the method:
Method: The rate of synthesis of 5-HT in the rat streatum was measured as the accumulation of 5-HTP during 30 min after inhibition of aromatic L-amino acid decarboxylase by NSD 1015 (decarboxylase inhibitor, 100 mg/kg i.p.). The test compound was administered 30 min before the NSD 1015. The regions of the brain to be examined were dissected, frozen and stored.
The levels of 5-HTP (5-hydroxytryptophan) was determined by use of high performance liquid chromatography (HPLC) with electrochemical detection according to the method of Magnusson, Nilsson and Westerlund (1980). The mobile phase was 0.1 M phosphate buffer (pH 2.5):methanol:acetonitrile-89:9:2 v/v, containing 1mM octylsulphate. The frozen samples were weighed and homogenized in 0,1 M perchloric acid, containing […] sodium bisulphite, 1 mM ethylene diamine tetraacetic acid (EDTA) and epinine as an internal standard. The supernatants were injected directly onto a Supelcosil C18 (3 µM) column, connected to a detector (ESA Coulochem 5100A), set to 0.05/0.40 V.

Data set [2] is described as follows: Temperature effects: body temperature in rats. Type of data set: in vivo. The protocol:
Method: In each test, thirty rats, weighing approx 250 g, housed in 6 cages of 5 rats, are used. The rats have free access to food and water. Before the start of testing, they are numbered and left undisturbed for at last 1 hour. Before the administration of the compound, the body temperature of each rat is measured using a YSI 2100 tele-thermometer. The thermometer probe is inserted 10 cm into the rectum and left in pace for thirty seconds. The drug is then administered either subcutaneously or orally. In each experiment vehicle and 4 doses of drug are tested. One rat in each cage receives each treatment. The order of treatment is rotated since disturbance to the cage increases the activity of the rats, and thereby their body temperature. Thirty minutes after drug administration the rats' body temperature are measured again. The procedure is repeated 60, 90 and 120 minutes after drug administration. The resultant data on body temperature is subjected to analysis of variance. A significant group by time interaction is taken as an indication of drug effect. To obtain the minimum effective dose, the mean temperature for each of the drug treated groups are compared with that of the vehicle group at each time point using Dunnett's t-test with a level of significance of p<0.02. […]

With `CCCN(C(C)C)C1COc2cccc(C(=O)NC(C)C)c2C1` (racemic) [racemate, 3-(N-Isopropyl-N-n-propylamino)-5-(N-isopropyl)carbamoyl chroman], the Ki at 5-HT1A receptors came out at 24 nM. Moreover, in data set [1], the bioavailability was 21%.

As for `CCCN(C(C)C)[C@H]1COc2cccc(C(=O)NC(C)C)c2C1` [(R)-enantiomer, (R)-3-(N-Isopropyl-N-n-propylamino)-5-(N-isopropyl)carbamoylchroman], the “synthesis rate of 5-HT, measured as 5-HTP level in rat brain” value in the data set with synthesis rate of 5-HT (0.2 mg/kg oral administration) and in the data set with synthesis rate of 5-HT (0.1trig/kg subcutaneous administration) was “significant decrease” in each case. Further, the body temperature result in data set [2] (1 mg/kg oral administration) and in data set [2] (subcutaneous administration of 0.3 mg/kg) was “significant temperature decrease” throughout. For the same compound, the Ki at 5-HT1A receptors was 8.6 nM. The same compound had a bioavailability in data set [1] of 17%.

In the case of `CCCN(C(C)C)[C@@H]1COc2cccc(C(=O)NC(C)C)c2C1` [(S)-enantiomer, (S)-enantiomer of 3-(N-isopropyl-N-n-propylamino)-5-(N-isopropyl)carbamoylchroman], at 5-HT1A receptors, the Ki was greater than 1000 nM.
